Data on 27 compounds can be found in patent US6602862B1, “1-Amino-alkylcyclohexanes as trypanocidal agents” (Merz Pharma GmbH & Co., KGAA, priority 2000, dated 2003).

In series [1] the test system is Bloodstream form T-brucei (strain 427). The series can be described thus: Growth inhibition of cultured bloodstream form T. brucei, 3 days in presence of test compounds. The conditions noted are these: for (Inhibition) (5 μg ml^−1): preliminary screen at 5 μg ml^−1, 3 days; for inhibition at 5 µg/mL: read-out: (Inhibition) (5 μg ml^−1).
Description: After determination of cell densities at each drug concentration using a hemocytometer (Weber Scientific International Ltd), drug sensitivity was expressed as a percentage of growth of control cells.
In a preliminary screen, bloodstream form T.brucei were cultured for 3 days in growth medium at pH 7.4 in the presence of aminoalkylcyclohexane derivatives at a concentration of 5 μg ml^−1.
Initially each compound was screened to determine the inhibitory effect at 5 μg ml^−1 (data in brackets). […] Each experiment was performed in triplicate, except where indicated (++). […] Values are presented as ±SD from the mean. […] All other compounds were dissolved in H2O. Control cells were treated accordingly. ND stands for not done.
The conditions of series [2]: patients, advanced stage of the disease; cited from earlier work.
Series [3] deals with bloodstream form of the African trypanosome, Trypanosoma brucei. The conditions noted are these: reported recently; cited from earlier work.
Where [4] appears, read: Trypanosoma brucei, 72 h, pH 7.4.
[5] abbreviates: concentration inhibiting growth by 50%, 3 days, 37°, pH 7.4, ±SD.
The mark [6] stands for this setting: concentration inhibiting growth by 90%, 3 days, 37°, pH 7.4, ±SD, ++ = six experiments.
[7] abbreviates: Trypanosoma brucei, 72 h, read-out: IC90.

Read-outs that look alike come from different tables or passages of the source. Bounds are passed on as bounds.

Consider `C[C@@H]1CC(C)(C)C[C@@](C)(N)C1` (relative stereo) [Compound 607, 1-Amino-1,3,3,5(trans)-tetramethylcyclohexane], for which, in series [1], the “(Inhibition) (5 μg ml^−1)” value is listed as “(17%)”.
On the same count and under the same terms, next, `C[C@H]1CCC[C@](C)(N)C1` (relative stereo) [Compound 625, 1-Amino-1,3 (trans)-dimethylcyclohexane]: “(0%)”; `CCC[C@H]1CCC[C@](C)(N)C1` (relative stereo) [Compound 627, 1-Amino-1-methyl-3 (trans) propylcyclohexane]: “(17%)”.
A word on the inhibition: it is the drop in the measured response relative to a control, in per cent. Take `CC[C@H]1CCC[C@](C)(N)C1` (relative stereo) [Compound 629, 1-Amino-1-methyl-3 (trans) ethylcyclohexane]: the inhibition at 5 µg/mL in series [1] (Trypanosoma brucei, 72 h) was found to be 2%.
Broadly, the IC50 is the concentration at which inhibition is half-maximal. Broadly, the IC90 is the concentration at which the effect reaches the 90% level. `CC[C@@H]1CC(C)(C)C[C@](C)(N)C1` (relative stereo) [Compound 632, 1-Amino-1,3,3-trimethyl-5 (cis) ethylcyclohexane]: in series [1] (setting [4]), the IC50 stood at 2.92 ± 0.19 µg/mL and the IC90 came out at 3.8 ± 0.07 µg/mL.
Take `CCC[C@H]1CC(C)(C)C[C@@](C)(N)C1` (relative stereo) [Compound 634, cis-3-Propyl-1,5,5-trimethylcyclohexylamine]: the IC50 in series [1] (setting [5]) is 0.57 ± 0.13 µg/mL. The IC90 in series [1] (setting [6]) is reported as 0.77 ± 0.15++ μg ml−1.
For `CCC[C@H]1CC(C)(C)C[C@](C)(N)C1` (relative stereo) [Compound 635, trans-3-Propyl-1,5,5-trimethylcyclohexylamine] the same measures were 2.23 ± 0.33 µg/mL and 3.67 ± 0.06 µg/mL.
With `CC1(C)CC(CN)CC(C)(C)C1` [Compound 580, 3,3,5,5-Tetramethylcyclohexylmethylamine], in series [1] (setting [4]), the IC50 was 1.44 ± 0.09 µg/mL and the IC90 amounted to 1.89 ± 0.02 µg/mL. Also, the IC90 in series [1] (setting [7]) is < 2 µg/mL.
The matching figures for `CCCC1(N)CC(C)(C)CC(C)(C)C1` [Compound 601, 1-Amino-1-propyl-3,3,5,5-tetramethylcyclohexane]: 1.43 ± 0.08 µg/mL, 1.87 ± 0.02 µg/mL and < 2 µg/mL.
In the case of `CCCC1(C)CC(C)(C)CC(C)(N)C1` (stereo not drawn) [Compound 614, 3-Propyl-1,3,5,5-Tetramethylcyclohexylamine], in series [1] (setting [4]), the IC50 is 0.55 ± 0.11 µg/mL and the IC90 turned out to be 0.88 ± 0.09 µg/mL.
The matching figures for `CCC1(C)CC(C)(C)CC(C)(N)C1` (stereo not drawn) [Compound 615, 1-Amino-1,3,5,5-tetramethyl-3-ethylcyclohexane]: 1.45 ± 0.07 µg/mL and 1.93 ± 0.02 µg/mL.
The matching figures for `CCCC1(C)CCCC(C)(N)C1` (stereo not drawn) [Compound 617, 1-Amino-1,3-dimethyl-3-propylcyclohexane]: 1.54 ± 0.08 µg/mL and 2.33 ± 0.24 µg/mL.
For the compound `CCCC1(C)CC(C)CC(C)(N)C1` (stereo not drawn) [Compound 618, 1-Amino-1,3 (trans),5 (trans)-trimethyl-3(cis)-propylcyclohexane], in series [1] (setting [5]), the IC50 amounted to 2.19 ± 0.69 µg/mL. Moreover, in series [1] (setting [6]), the IC90 is 3.59 ± 0.17 µg/mL.
For the compound `CCC1(C)CCCC(C)(N)C1` (stereo not drawn) [Compound 620, 1-Amino-1,3-dimethyl-3-ethylcyclohexane], the inhibition at 5 µg/mL in series [1] (Trypanosoma brucei, 72 h) is 25%.
Still for that read-out and setting: the same measure for `CC1(C)CCCC(C)(N)C1` (stereo not drawn) [Compound 621, 1-Amino-1,3,3-trimethylcyclohexane]: 40%.
For the compound `CCC1(C)CC(C)CC(C)(N)C1` (stereo not drawn) [Compound 622, cis-3-Ethyl-1, trans-3, trans-5-trimethylcyclohexamine], the “(Inhibition) (5 μg ml^−1)” value in series [1] is given as “(40%)”.
For `CCCC1(CCC)CC(C)(C)CC(C)(N)C1` (stereo not drawn) [Compound 626, 1,3,3-Trimethyl-5,5-dipropylcyclohexylamine], in series [1] (setting [4]), the IC50 was 0.25 ± 0.01 µg/mL and the IC90 stood at 0.29 ± 0.01 µg/mL.
Consider `CCCC1CCCC(C)(N)C1` (stereo not drawn) [Compound 628, 1-Methyl-3-cis-propylcyclohexylamine], for which the IC50 in series [1] (setting [5]) amounted to 1.54 ± 0.02 µg/mL. The IC90 in series [1] (setting [6]) came to 1.95 ± 0.03 µg/mL.
In the case of `CCC1CC(C)(C)CC(C)(N)C1` (stereo not drawn) [Compound 633, 1-Amino-1,3,3-trimethyl-5 (trans) ethylcyclohexane], the inhibition at 5 µg/mL in series [1] (Trypanosoma brucei, 72 h) was 68%.
With `CCNC1(C)CC(C)(C)CC(C)(C)C1` [Compound 639, N-Ethyl-1,3,3,5,5-pentamethylcyclohexylamine], the half-inhibitory concentration (IC50) in series [1] (setting [4]) turned out to be 1.37 ± 0.19 µg/mL. Besides, the IC90 was 1.96 ± 0.03 µg/mL in series [1] (setting [4]) and < 2 µg/mL in series [1] (setting [7]).
Turning to `CC1(N)CCCCC1` [Compound 641, 1-Amino-1-methylcyclohexane], the inhibition at 5 µg/mL in series [1] (Trypanosoma brucei, 72 h) stood at 86%.
On the same count and under the same terms, the same measure for `CN(C)C1(C)CC(C)(C)CC(C)(C)C1` [Compound 642, N,N-dimethyl-1-amino-1,3,3,5,5-pentamethylcyclohexane]: 21%.
With `CC1(C)CC(CCN)CC(C)(C)C1` [Compound 644, 2-(3,3,5,5-Tetramethylcyclohexyl)ethylamine], in series [1] (setting [4]), the IC50 was found to be 0.23 ± 0.02 µg/mL and the IC90 is 0.31 ± 0.03 µg/mL.
Turning to `CC(C)(N)CC1CC(C)(C)CC(C)(C)C1` [Compound 645, 2-Methyl-1-(3,3,5,5-tetramethylcyclohexyl)propyl-2-amine], the IC50 in series [1] (setting [5]) was determined as 0.22 ± 0.02 µg/mL. For the same compound, the IC90 in series [1] (setting [6]) stood at 0.29 ± 0.01 µg/mL.
With `CC1(C)CC(C)(C)CC(C)(CCN)C1` [Compound 662, 2-(1,3,3,5,5-Pentamethylcyclohexyl-1) ethylamine], in series [1] (setting [5]), the IC50 amounted to 0.24 ± 0.03 µg/mL. For the same compound, the IC90 in series [1] (setting [6]) was 0.38 ± 0.08++ μg ml−1.
With `Nc1nc(N)nc(Nc2ccc([As]3SCC(CO)S3)cc2)n1` (stereo not drawn) [Melarsoprol], the “patient mortality due to arsenic encephalopathy” value in series [2] is on record as 5 to 10%.
Take `CC(N)C12CC3CC(CC(C3)C1)C2` (stereo not drawn) [rimantadine]: in series [3], the “sensitivity of bloodstream form T. brucei” value was “sensitive”.
